# What was measured:
# [1] = tested on: murine ventricular cardiomyocytes; assay: Ca2+ imaging (transients, sparks, waves) in isolated cardiomyocytes; type: cell-based
# Procedure: Murine ventricular cardiomyocytes were isolated as previously described (Reuter et al., 2004, J Physiol 554, 779-789). Cells were loaded with 5 μM fluo-4 AM in external solution containing: 138.2 mM NaCl, 4.6 mM KCl, 1.2 mM MgCl, 15 mM glucose, 20 mM HEPES for 1 hr and imaged in external solution supplemented with 2, 5 or 10 mM CaCl2). For the recording of Ca^2+ sparks and transients, the external solution contained 2 mM CaCl2. For Ca^2+ transients, cells were field stimulated at 0.5 Hz with a 5 ms pulse at a voltage of 20% above contraction threshold. For all measurements, efsevin was added 2 hours prior to the actual experiment. Images were recorded on a Zeiss LSM 5 Pascal confocal microscope. Data analysis was carried out using the Zeiss LSM Image Browser and ImageJ with the SparkMaster plugin (Picht et al., 2007, Am J Physiol Cell Physiol 293, C1073-1081). Cells were visually inspected prior to and after each recording. Only those recordings from healthy looking cells with distinct borders, uniform striations and no membrane blebs or granularity were included in the analysis.
# [2] = tested on: zebrafish tremblor (tre) embryos; assay: Cardiac performance (line-scan fractional shortening, heart rate) of tremblor embryos; type: in vivo
# Procedure: Movies of GFP-labelled myl7:GFP hearts were taken at 30 frames per second. Line-scan analysis was performed along a line through the atria or the ventricles of these hearts (Nguyen et al., 2009, Drug Discovery Today: Disease Models 5). Fraction of shortening was deduced from the ratio of diastolic and systolic width and heart rate was determined by beats per minute. Cardiac parameters were analyzed in tremblor^tc318 and VDAC2^LA2256 at 2 dpf.
# [3] = tested on: VDAC2; assay: Affinity bead pull down from zebrafish embryo lysate with mass spectrometry; type: binding; conditions: zebrafish embryonic lysate, affinity agarose beads
# Procedure: For pull down assays mono-N-Boc protected 2,2′-(ethylenedioxy)bis(ethylamine) was attached to the carboxylic ester of efsevin and its derivatives through the amide bond. After removal of the Boc group using TFA, the primary amine was coupled to the carboxylic acid of Affi-Gel 10 Gel (Biorad). Two-day-old zebrafish embryos were deyolked by centrifugation before being lysed with Rubinfeld's lysis buffer (Rubinfeld et al., 1993, Science 262, 1731-1734). The lysate was precleaned by incubation with Affi-Gel 10 Gel to eliminate non-specific binding. Precleaned lysate was incubated with affinity beads overnight. Proteins were eluted from the affinity beads and separated on SDS-PAGE. Protein bands of interest were excised. Gel plugs were dehydrated in acetonitrile (ACN) and dried completely in a Speedvac. Samples were reduced and alkylated with 10 mM dithiotreitol and 10 mM TCEP solution in 50 mM NH4HCO3 (30 min at 56° C.) and 100 mM iodoacetamide (45 min in dark), respectively. Gel plugs were washed with 50 mM NH4HCO3, dehydrated with ACN, and dried down in a Speedvac. Gel pieces were then swollen in digestion buffer containing 50 mM NH4HCO3, and 20.0 ng/μL of chymotrypsin (25° C., overnight). Peptides were extracted with 0.1% TFA in 50% ACN solution, dried down and resuspended in LC buffer A (0.1% formic acid, 2% ACN).
# Extracted peptides were analyzed by nano-flow LC/MS/MS on a Thermo Orbitrap with dedicated Eksigent nanopump using a reversed phase column (New Objective). The flow rate was 200 nL/min for separation: mobile phase A contained 0.1% formic acid, 2% ACN in water, and mobile phase B contained 0.1% formic acid, 20% water in ACN. The gradient used for analyses was linear from 5% B to 50% B over 60 min, then to 95% B over 15 min, and finally keeping constant 95% B for 10 min. Spectra were acquired in data-dependent mode with dynamic exclusion where the instrument selects the top six most abundant ions in the parent spectra for fragmentation. […]
# [4] = tested on: zebrafish tremblor (tre) embryos; assay: Restoration of coordinated cardiac contractions in tre embryos; type: in vivo
# Procedure: (§1) VDAC2 mRNA and morpholino antisense oligos (5′-[…]-3′) (Genetools) (SEQ ID NO: 9) were injected into one-cell stage embryos collected from crosses of tre^tc318 heterozygotes. Cardiac performance was analyzed by visual inspection on 1 dpf. The tre mutant embryos were identified either by observing the fibrillation phenotype at 2-3 dpf or by genotyping as previously described (Langenbacher et al., 2005).
# (§2) Chemicals from a synthetic library (Castellano et al., 2007, J Am Chem Soc 129, 5843-5845; Choi et al., 2011, Development 138, 1173-1181; Cruz et al., 2011, Proc Natl Acad Sci USA 108, 6769-6774) and from Biomol International LP were screened for their ability to partially or completely restore persistent heartbeat in tre embryos. 12 embryos collected from crosses of tre^tc318 heterozygotes were raised in the presence of individual compounds at a concentration of 10 μM from 4 hpf (Choi et al., 2011). Cardiac function was analyzed by visual inspection at 1 and 2 dpf. The hearts of tre^tc318 embryos manifest a chaotic movement resembling cardiac fibrillation with intermittent contractions in rare occasion (Ebert et al., 2005; Langenbacher et al., 2005). Compounds that elicit persistent coordinated cardiac contractions were validated on large number of tre mutant embryos and NCX1h morphants (>500 embryos).
# [5] = tested on: NCX1hMO injected embryos; assay: Restoration of coordinated cardiac contractions in NCX1h morpholino embryos; type: in vivo, zebrafish; conditions: for embryos with coordinated contractions: VDAC2^zfn/zfn
# Procedure: as §1, §2
# [6] = paced at 0.5 Hz, % of vehicle-treated
# [7] = efsevin treatment, NCX1MO embryos
compound,measurement,setting,value
CCOC(=O)C1=CCN(S(=O)(=O)c2ccc(C)cc2)C1c1ccccc1 (centres unmarked) [efsevin],spontaneous Ca2+ waves spanning more than half of the entire cell,[1]; 1 μM efsevin,approximately half
same,spontaneous Ca2+ waves spanning more than half of the entire cell,[1]; 10 μM efsevin,further reduced
same,spontaneous Ca2+ waves spanning more than half of the entire cell,[1]; 25 μM efsevin,almost entirely blocked
same,decay phase of the single spark,[1]; % of vehicle-treated,82.5±2.1%
same,maximum spark amplitude,[1]; % of vehicle-treated,101.6±2.5%
same,total duration of the spark,[1]; % of vehicle-treated,85.7±2%
same,total width of the spark,[1]; % of vehicle-treated,89.5±1.4%
same,Ca2+ spark frequency,[1]; efsevin compared to vehicle-treated,101.1±7.7%
same,Ca2+ transient rate of decay,[1]; [6],82.8±4%
same,Ca2+ transient time to peak,[1]; [6],95±3.9%
same,Ca2+ transient amplitude,"[1]; paced at 0.5 Hz, efsevin-treated as % of vehicle-treated",98.6±4.5%
same,Ca2+ release flux,"[1]; sparks, % of vehicle-treated",98.7±2.8%
same,heart rate,[2]; efsevin-treated tre embryos,46±2 beats per minute (bpm)
same,"heart rate restored, relative to wild-type/controls","[2]; efsevin-treated tre embryos, 2 dpf, % of wild-type heart rate",approximately 40%
same,Atrial FS,"[2]; tre + efsevin, 48 hpf",33±2%
same,Ventricular FS,"[2]; tre + efsevin, 48 hpf",35±3%
same,pull down of the 32 kD band (VDAC2),[3],pulled down
same,embryos with coordinated cardiac contractions,[4]; efsevin treated tre embryos,71.2±8.8%
same,embryos with coordinated contractions,"[4]; efsevin treated tre embryos, VDAC1/2 knocked down simultaneously",30.3±6.3%
same,embryos with coordinated contractions,"[4]; efsevin treated tre embryos, morpholino knockdown of VDAC1 (MO^VDAC1)",46.9±10.7%
same,embryos with coordinated contractions,"[4]; efsevin treated tre embryos, morpholino knockdown of VDAC2 (MO^VDAC2)",45.3±7.4%
same,restoration of rhythmic contractions in tremblor embryos,[4]; tremblor embryos,restored rhythmic contractions in the majority of tremblor embryos
same,embryos with coordinated cardiac contractions,[5]; [7],76.2±8.7%
same,embryos with coordinated contractions,[5]; [7],54.1±3.6%
same,embryos with coordinated contractions,"[5]; efsevin treatment, VDAC1MO, NCX1MO embryos",35.7±7.1%
same,restoration of rhythmic contractions in NCX1hMO injected embryos,[5]; linker-attached compounds,retained their ability to restore rhythmic contractions

# — US12378193B2, “Anti-arrhythmicity agents” (The Regents of the University of California, priority 2014, dated 2025)
